# Laboratory results taken from article PMC8881512 (Nature Communications, 2022).
# “And” between values parts separate entries of the source, which are not always exact repeats. Identical values can stand only once.
# Assays:
# CAMK2d = target: T1, CAMK2d (Homo sapiens, UniProt Q13557); test: Kinome profiling; format: biochemical; details: VT02956 (5 nM), read-out: % enzymatic activity relative to DMSO controls
# T1 construct: LATS1/LATS2 enzymes from Signalchem
# MCF-7 cells = test: Cell proliferation by cell counting, MCF-7; format: cell-based, human; details: for Cell proliferation normalised to DMSO treated WT cells: 4 days, Fig.6c
# Protocol: (§1) Cell proliferation rates were determined by automated cell counter. In brief, cells were plated at density of 0.1 million cells per well in six-well plate. Cell numbers were counted by the indicated time point as stated in the figure legends.
# TXK = target: T2, TXK (Homo sapiens, UniProt P42681); test: Kinome profiling; format: biochemical; details: VT02956 (5 nM), read-out: % enzymatic activity relative to DMSO controls
# T2 construct: LATS1/LATS2 enzymes from Signalchem
# T47D cells = test: Cell proliferation by cell counting, T47D; format: cell-based; details: 0.5 µM or 2 µM, time course to 8 days; Supplementary Fig. 8c, d
# Protocol: as §1
# p70S6K/RPS6KB1 = target: T3, p70S6K/RPS6KB1 (Homo sapiens, UniProt P23443); test: Kinome profiling; format: biochemical; details: VT02956 (5 nM), read-out: % enzymatic activity relative to DMSO controls
# T3 construct: LATS1/LATS2 enzymes from Signalchem
# [1] = system: Phospho-YAP (Ser127) in 4T1 cells; test: Cellular Phospho-YAP HTRF assay, 4T1; format: cell-based; details: for YAP phosphorylation: 4T1, Fig.5d
# CHK1 = target: T4, CHK1 (Homo sapiens, UniProt O14757); test: Kinome profiling; format: biochemical; details: VT02956 (5 nM)
# T4 construct: LATS1/LATS2 enzymes from Signalchem
# LATS2 = target: T5, LATS2 (Homo sapiens, UniProt Q9NRM7); test: Kinome profiling; format: biochemical; details: VT02956 (5 nM)
# T5 construct: purchased Signalchem
# T5 sequence (Q9NRM7 1-1088): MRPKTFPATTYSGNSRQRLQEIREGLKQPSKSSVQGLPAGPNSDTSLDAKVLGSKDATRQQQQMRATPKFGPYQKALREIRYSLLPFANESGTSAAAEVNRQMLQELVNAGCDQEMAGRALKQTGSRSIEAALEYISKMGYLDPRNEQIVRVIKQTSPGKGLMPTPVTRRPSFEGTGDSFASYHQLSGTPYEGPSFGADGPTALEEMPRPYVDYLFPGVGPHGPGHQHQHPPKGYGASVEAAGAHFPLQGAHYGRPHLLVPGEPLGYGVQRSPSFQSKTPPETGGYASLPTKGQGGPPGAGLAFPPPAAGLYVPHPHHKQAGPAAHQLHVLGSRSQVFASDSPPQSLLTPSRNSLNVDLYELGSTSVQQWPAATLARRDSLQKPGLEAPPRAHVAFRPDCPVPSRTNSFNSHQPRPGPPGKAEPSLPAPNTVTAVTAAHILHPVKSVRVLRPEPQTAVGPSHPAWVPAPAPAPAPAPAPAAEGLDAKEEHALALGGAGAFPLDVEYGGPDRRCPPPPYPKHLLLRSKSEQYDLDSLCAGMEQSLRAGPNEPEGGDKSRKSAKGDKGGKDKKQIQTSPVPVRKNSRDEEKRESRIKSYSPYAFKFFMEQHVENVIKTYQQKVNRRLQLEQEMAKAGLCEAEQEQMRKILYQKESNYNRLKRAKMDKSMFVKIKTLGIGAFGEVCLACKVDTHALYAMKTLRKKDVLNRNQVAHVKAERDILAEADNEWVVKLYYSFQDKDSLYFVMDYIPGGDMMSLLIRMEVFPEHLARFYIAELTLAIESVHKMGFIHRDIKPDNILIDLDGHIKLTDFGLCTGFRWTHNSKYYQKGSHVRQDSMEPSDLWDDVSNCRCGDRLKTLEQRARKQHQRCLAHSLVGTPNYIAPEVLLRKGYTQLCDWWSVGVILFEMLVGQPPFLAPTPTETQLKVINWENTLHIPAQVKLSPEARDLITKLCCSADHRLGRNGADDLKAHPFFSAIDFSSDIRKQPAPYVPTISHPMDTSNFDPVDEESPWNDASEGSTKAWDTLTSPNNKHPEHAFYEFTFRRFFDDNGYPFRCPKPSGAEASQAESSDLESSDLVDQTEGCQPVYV
# BTK = target: T6, BTK (Homo sapiens, UniProt Q06187); test: Kinome profiling; format: biochemical; details: VT02956 (5 nM)
# T6 construct: LATS1/LATS2 enzymes from Signalchem
# BLK = target: T7, BLK (Homo sapiens, UniProt P51451); test: Kinome profiling; format: biochemical; details: VT02956 (5 nM), read-out: % enzymatic activity relative to DMSO controls
# T7 construct: LATS1/LATS2 enzymes from Signalchem
# CDK9/cyclin T2 = target: T8, CDK9/cyclin T2 (Homo sapiens, UniProt P50750); test: Kinome profiling; format: biochemical; details: VT02956 (5 nM), read-out: % enzymatic activity relative to DMSO controls
# T8 construct: LATS1/LATS2 enzymes from Signalchem
# [2] = system: Phospho-YAP (Ser127) in HEK293A cells; test: Cellular Phospho-YAP HTRF assay, HEK293A; format: cell-based; details: for YAP phosphorylation: 293A, Fig.5d
# Protocol: Compound inhibition of […] YAP phosphorylation were performed based on commercial Phospho-YAP (Ser127) kit (Cisbio). In brief, HEK293A cells at 80%-100% confluence was rinsed with PBS, digested in 0.25% Trypsin-EDTA and centrifuged at 1000 × g for 3 min. The cell pellet was resuspended with appropriate volume of serum-free medium, counted using automated cell counter (Invitrogen), adjusted to a working density of 2.9 × 10^6/ml and dispensed into 384-well small volume white plate (Greiner) at 12 μl/well (3.5 × 10^4 cells) using Thermo Multidrop Combi microplate dispenser. At the time of detection, 36 nl DMSO contain 3-fold serial diluted compounds ranging from 10,000 to 4.6 nM were added into designed wells by Eco system and incubated at 37 °C for 120 min. Cell were lysed by adding 4 μl lysis buffer (4x), and incubated for 45 min at room temperature under shaking. HTRF reaction was performed by adding 4 μl of premixed phospho-YAP Cryptate antibody/Phospho-YAP d2 antibody solution prepared in the detection buffer and incubate at room temperature overnight. […] The compound inhibition was calculated by the formula, inhibition % = ([…]) × 100/ (HPE−ZPE). HPE represent 100% effect and ZPE is 0% effect. The data processing procedures were similar as in vitro LATS kinase inhibition assay.
# T6 sequence (Q06187 whole entry): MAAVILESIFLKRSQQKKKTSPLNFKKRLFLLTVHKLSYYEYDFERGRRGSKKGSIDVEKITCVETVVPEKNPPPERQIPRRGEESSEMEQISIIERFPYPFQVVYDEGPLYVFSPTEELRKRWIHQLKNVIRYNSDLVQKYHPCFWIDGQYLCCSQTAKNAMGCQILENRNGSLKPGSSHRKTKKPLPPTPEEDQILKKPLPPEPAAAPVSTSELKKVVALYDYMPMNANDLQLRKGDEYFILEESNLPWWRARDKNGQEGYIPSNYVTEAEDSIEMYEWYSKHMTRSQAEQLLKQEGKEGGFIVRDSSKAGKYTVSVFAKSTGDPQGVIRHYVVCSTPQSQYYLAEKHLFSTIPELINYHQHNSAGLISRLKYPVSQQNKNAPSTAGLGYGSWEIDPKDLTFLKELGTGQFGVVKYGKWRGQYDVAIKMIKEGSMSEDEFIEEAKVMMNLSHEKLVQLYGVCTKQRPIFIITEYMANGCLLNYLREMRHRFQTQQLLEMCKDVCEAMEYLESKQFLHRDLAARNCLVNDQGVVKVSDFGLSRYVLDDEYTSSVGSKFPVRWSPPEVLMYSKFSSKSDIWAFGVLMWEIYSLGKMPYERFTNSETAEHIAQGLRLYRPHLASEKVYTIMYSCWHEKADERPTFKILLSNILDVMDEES
# T4 sequence (O14757 whole entry): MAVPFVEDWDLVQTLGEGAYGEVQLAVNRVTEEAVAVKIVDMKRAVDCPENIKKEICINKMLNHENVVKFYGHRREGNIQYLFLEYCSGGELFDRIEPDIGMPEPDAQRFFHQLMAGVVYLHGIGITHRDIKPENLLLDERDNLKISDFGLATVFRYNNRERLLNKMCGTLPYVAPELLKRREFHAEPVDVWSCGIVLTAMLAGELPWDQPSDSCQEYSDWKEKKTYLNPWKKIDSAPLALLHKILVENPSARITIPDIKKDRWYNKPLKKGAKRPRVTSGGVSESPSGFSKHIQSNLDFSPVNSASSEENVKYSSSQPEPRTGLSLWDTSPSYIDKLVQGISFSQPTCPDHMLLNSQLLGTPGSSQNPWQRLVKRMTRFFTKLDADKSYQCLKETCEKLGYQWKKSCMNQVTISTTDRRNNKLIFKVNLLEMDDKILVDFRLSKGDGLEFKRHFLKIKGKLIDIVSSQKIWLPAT
# T8 sequence (P50750 whole entry): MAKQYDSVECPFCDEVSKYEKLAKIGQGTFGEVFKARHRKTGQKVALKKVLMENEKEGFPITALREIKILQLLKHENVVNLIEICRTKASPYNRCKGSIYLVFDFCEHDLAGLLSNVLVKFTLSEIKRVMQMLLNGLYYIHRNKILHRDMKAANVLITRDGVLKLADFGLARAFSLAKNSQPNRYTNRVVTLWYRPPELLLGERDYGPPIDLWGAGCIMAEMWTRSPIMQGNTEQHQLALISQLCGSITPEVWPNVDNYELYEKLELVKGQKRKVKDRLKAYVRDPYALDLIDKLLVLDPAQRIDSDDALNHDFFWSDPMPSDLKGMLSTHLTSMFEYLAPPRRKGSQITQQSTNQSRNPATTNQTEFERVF
# T8 sequence (O60583 whole entry partner): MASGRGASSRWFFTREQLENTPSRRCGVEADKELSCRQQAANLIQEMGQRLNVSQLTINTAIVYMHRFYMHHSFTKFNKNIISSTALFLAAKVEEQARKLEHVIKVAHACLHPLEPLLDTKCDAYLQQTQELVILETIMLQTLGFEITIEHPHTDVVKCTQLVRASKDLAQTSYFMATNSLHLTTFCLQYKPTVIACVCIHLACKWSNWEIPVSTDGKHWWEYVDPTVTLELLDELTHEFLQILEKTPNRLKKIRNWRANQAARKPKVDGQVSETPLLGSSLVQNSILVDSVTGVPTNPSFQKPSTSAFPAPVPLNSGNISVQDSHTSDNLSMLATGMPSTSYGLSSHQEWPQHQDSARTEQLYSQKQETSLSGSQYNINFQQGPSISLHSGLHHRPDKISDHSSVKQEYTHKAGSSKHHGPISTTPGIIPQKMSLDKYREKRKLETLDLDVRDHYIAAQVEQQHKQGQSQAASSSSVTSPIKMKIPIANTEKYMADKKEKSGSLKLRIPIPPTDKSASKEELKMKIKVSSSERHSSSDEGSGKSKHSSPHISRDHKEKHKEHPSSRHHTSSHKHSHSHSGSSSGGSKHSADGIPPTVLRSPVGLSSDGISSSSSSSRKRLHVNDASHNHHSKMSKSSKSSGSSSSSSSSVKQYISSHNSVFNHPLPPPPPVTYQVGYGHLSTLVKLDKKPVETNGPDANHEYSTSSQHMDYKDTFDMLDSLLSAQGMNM
# T3 sequence (P23443 whole entry): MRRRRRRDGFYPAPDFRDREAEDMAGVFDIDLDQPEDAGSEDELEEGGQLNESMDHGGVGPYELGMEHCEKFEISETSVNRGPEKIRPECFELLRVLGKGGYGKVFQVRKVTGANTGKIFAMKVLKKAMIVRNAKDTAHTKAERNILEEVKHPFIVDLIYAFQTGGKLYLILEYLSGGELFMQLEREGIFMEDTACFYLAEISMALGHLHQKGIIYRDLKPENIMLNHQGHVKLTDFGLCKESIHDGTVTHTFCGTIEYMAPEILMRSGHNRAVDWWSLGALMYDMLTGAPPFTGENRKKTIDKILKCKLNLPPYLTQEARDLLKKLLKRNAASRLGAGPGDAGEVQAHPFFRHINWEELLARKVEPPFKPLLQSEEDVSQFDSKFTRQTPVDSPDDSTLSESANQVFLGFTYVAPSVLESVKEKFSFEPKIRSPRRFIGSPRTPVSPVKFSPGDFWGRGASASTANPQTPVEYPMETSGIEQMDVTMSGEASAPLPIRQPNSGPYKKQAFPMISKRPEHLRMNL
# T1 sequence (Q13557 whole entry): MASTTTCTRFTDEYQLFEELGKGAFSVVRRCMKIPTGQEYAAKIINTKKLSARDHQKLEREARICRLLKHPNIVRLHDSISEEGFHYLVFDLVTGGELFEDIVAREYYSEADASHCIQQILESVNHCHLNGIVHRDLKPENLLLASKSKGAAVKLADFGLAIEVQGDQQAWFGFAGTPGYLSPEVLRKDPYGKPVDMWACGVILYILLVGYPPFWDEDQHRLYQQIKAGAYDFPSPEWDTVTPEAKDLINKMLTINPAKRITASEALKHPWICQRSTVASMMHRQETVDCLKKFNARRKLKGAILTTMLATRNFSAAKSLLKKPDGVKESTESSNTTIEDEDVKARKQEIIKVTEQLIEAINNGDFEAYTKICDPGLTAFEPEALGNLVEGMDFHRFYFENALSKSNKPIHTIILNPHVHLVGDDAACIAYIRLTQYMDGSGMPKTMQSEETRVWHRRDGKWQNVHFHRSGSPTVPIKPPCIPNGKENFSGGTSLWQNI
# T7 sequence (P51451 whole entry): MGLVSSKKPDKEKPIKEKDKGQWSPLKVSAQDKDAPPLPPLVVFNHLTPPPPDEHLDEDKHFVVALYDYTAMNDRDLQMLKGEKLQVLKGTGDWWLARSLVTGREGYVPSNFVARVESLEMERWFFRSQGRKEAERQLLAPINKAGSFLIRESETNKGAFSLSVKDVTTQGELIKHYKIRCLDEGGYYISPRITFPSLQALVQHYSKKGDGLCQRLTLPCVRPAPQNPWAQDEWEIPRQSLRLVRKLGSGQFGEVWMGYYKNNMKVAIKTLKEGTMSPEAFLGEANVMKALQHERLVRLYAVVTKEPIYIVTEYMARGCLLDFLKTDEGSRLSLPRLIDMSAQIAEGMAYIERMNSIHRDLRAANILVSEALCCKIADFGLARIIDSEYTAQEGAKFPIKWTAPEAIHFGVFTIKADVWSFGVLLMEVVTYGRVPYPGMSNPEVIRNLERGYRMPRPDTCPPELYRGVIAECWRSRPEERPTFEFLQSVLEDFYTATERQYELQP
# T2 sequence (P42681 whole entry): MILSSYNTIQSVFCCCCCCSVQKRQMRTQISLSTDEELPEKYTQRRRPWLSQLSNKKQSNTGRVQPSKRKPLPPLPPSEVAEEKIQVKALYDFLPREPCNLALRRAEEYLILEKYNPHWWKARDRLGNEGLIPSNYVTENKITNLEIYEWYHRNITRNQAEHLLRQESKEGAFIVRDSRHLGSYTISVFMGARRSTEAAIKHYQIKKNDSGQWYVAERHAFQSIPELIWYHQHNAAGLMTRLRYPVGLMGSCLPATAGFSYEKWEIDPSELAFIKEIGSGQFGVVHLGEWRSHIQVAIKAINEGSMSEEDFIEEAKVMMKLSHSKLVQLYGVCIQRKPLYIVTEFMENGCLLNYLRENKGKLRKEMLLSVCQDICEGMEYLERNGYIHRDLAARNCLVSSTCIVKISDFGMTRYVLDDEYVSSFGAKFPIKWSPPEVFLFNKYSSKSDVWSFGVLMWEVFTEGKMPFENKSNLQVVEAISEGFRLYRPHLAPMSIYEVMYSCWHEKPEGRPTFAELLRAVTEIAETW
smiles,measurement,setting,value
NCC1CCN(c2nc(-c3ccncc3)nc3c(C#CCO)cccc23)CC1 [VT02956],remaining activity at 0.005 µM,CAMK2d,77%
same,MCF-7 proliferation,"MCF-7 cells; 0.5 µM or 2 µM, 4-day time course, Supplementary Fig. 8a, b",inhibited the proliferation of MCF-7 and T47D cells
same,Cell proliferation normalised to DMSO treated WT cells,"MCF-7 cells; MCF-7 LATS1/2 dKO, VT02956 0.5 uM",31.2704 and 24.43 and 25.4072
same,Cell proliferation normalised to DMSO treated WT cells,"MCF-7 cells; MCF-7 LATS1/2 dKO, VT02956 2 uM",23.4528 and 26.3844 and 21.4984
same,Cell proliferation normalised to DMSO treated WT cells,"MCF-7 cells; MCF-7 WT, VT02956 0.5 uM",76.2215 and 83.0619 and 85.9935
same,Cell proliferation normalised to DMSO treated WT cells,"MCF-7 cells; MCF-7 WT, VT02956 2 uM",41.0423 and 42.0195
same,Cell proliferation normalised to DMSO treated WT cells,"MCF-7 cells; MCF-7 YAP/TAZ dKO, VT02956 0.5 uM",94.7883 and 88.9251 and 92.8339
same,Cell proliferation normalised to DMSO treated WT cells,"MCF-7 cells; MCF-7 YAP/TAZ dKO, VT02956 2 uM",84.0391 and 80.1303 and 85.0163
same,remaining activity at 0.005 µM,TXK,83%
same,T47D proliferation,T47D cells,inhibited the proliferation of MCF-7 and T47D cells
same,remaining activity at 0.005 µM,p70S6K/RPS6KB1,38%
same,YAP phosphorylation,[1]; Conc. 0.00457247 (µM),95.8709 and 110.479
same,YAP phosphorylation,[1]; Conc. 0.0137174 (µM),110.398 and 92.919
same,YAP phosphorylation,[1]; Conc. 0.0411523 (µM),99.5656 and 109.183
same,YAP phosphorylation,[1]; Conc. 0.123457 (µM),90.8642 and 77.798
same,YAP phosphorylation,[1]; Conc. 0.37037 (µM),55.9969 and 62.3937
same,IC50,"[1]; Mus musculus, 4T1 cells, read-out: YAP phosphorylation IC50",430 nM
same,% enzymatic activity relative to DMSO controls,CHK1,80%
same,% enzymatic activity relative to DMSO controls,LATS2,34%
same,% enzymatic activity relative to DMSO controls,BTK,83%
same,remaining activity at 0.005 µM,BLK,78%
same,remaining activity at 0.005 µM,CDK9/cyclin T2,74%
same,YAP phosphorylation,[2]; Conc. 0.00457247 (µM),88.3714 and 102.283
same,YAP phosphorylation,[2]; Conc. 0.0137174 (µM),105.168 and 111.221
same,YAP phosphorylation,[2]; Conc. 0.0411523 (µM),96.441 and 81.638
same,YAP phosphorylation,[2]; Conc. 0.123457 (µM),73.179 and 42.0107
same,YAP phosphorylation,[2]; Conc. 0.37037 (µM),20.9423 and 23.4127
same,YAP phosphorylation,[2]; Conc. 1.11111 (µM),9.018 and 5.767
same,IC50,"[2]; HEK293-A, 2 h, HEK293A cells, 120 min, read-out: YAP phosphorylation IC50",160 nM
